Data on 1 molecule can be found in ChEMBL document CHEMBL1137685, “A three-step synthesis from rebeccamycin of an efficient checkpoint kinase 1 inhibitor” (Eur J Med Chem, 2009).

The target of test [1] is Proto-oncogene tyrosine-protein kinase Src (Homo sapiens) (UniProt P12931). Description: Inhibition of Src at 1 uM.
Test [2] deals with T1, Serine/threonine-protein kinase Chk1 (Homo sapiens, UniProt O14757).
T1 sequence (O14757 whole entry): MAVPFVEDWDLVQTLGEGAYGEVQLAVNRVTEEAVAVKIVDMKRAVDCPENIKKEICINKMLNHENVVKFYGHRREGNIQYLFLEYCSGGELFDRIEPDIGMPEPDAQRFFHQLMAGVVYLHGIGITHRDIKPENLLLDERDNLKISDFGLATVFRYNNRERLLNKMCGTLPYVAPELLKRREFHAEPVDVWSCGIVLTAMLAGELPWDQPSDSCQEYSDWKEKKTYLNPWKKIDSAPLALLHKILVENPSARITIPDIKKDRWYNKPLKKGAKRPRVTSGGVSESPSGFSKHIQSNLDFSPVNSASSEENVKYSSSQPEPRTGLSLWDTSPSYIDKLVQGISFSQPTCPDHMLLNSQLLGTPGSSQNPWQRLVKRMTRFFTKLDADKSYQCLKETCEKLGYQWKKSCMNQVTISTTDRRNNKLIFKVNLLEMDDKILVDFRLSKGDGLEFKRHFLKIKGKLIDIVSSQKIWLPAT
Description: Inhibition of GST-tagged human full-length CHK1 expressed in Sf9 cells.

For test [3], the target named is T2, Serine/threonine-protein kinase Chk1 (Homo sapiens) (UniProt O14757).
T2 sequence (whole entry): T1 sequence (O14757 whole entry)
As to conditions: Sf9, 0.1 uM.
Description: Inhibition of GST-tagged human full-length CHK1 expressed in Sf9 cells at 0.1 uM

Chain of Proto-oncogene tyrosine-protein kinase Src (Homo sapiens) (P12931 2-536 limits assumed): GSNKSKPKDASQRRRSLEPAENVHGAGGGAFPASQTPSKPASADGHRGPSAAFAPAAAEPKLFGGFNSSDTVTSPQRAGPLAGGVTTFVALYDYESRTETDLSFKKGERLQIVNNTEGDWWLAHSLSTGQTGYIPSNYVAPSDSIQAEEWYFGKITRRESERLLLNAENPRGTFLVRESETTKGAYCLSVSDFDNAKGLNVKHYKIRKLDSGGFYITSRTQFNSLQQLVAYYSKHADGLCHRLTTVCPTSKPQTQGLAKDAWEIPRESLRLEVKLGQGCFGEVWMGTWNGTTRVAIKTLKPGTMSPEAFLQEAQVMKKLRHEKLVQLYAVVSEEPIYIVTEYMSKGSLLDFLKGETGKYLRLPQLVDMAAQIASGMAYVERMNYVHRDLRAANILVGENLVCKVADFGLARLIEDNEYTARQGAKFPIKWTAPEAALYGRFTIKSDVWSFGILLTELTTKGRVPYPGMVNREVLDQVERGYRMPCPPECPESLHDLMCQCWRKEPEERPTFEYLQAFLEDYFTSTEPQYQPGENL

For orientation: inhibition means the relative decrease from the control value, in per cent. A high value points to strong suppression. One may read the IC50 as the concentration needed to halve the response being measured. With `CO[C@H]1[C@H](O)[C@H]2[C@@H](O[C@@H]1CN)n1c3ccccc3c3c4c(c5c6ccccc6n2c5c31)C(=O)NC4=O`, the values for the inhibition in test [1] and in test [3] were 35% and 90%, respectively. Besides, the IC50 in test [2] turned out to be 2.8 nM.
